Laboratory results reported in BindingDB's records for doi:10.1021/cc9000357 (University of Alabama At Birmingham, 2009).

How the values were obtained:
[1] = target: T1, NH(3)-dependent NAD(+) synthetase (Bacillus anthracis, UniProt Q81RP3); assay: NADs HPLC Enzyme Assay; conditions: pH 8.5; 4 °C
T1 sequence (Q81RP3 whole entry): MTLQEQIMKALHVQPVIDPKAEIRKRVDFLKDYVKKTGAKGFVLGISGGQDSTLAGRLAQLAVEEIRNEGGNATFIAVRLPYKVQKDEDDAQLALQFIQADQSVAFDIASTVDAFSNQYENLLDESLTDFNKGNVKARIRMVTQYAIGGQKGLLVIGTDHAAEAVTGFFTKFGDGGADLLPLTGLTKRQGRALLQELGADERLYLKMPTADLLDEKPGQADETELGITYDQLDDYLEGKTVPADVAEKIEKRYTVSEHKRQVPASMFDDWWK
From the text: Inhibitory concentration of the compound measured against B. anthracis Nicotinamide adenine dinucleotide synthetase (NADs) using HPLC Enzyme Assay

[2] = target: T2, Probable nicotinate-nucleotide adenylyltransferase (Bacillus anthracis (strain CDC 684 / NRRL 3495), UniProt C3L5T6); assay: NaMNAT HPLC Enzyme Assay; conditions: pH 7.5; 0 °C
T2 sequence (C3L5T6 whole entry): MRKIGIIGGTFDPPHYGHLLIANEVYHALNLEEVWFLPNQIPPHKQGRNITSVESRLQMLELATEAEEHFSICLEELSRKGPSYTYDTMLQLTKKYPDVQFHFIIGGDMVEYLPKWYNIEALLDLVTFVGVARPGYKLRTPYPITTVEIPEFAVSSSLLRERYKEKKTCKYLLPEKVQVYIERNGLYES
From the text: Inhibitory concentration of the compound measured against B. anthracis Nicotinic acid mononucleotide adenylyltransferase (NaMNAT)using HPLC Enzyme Assay

SMILES: O=C(Nc1ccc(NS(=O)(=O)c2ccc(C(F)(F)F)cc2)cc1)Nc1cccc([N+](=O)[O-])c1 [1-(3-nitrophenyl)-3-[4-[[4-(trifluoromethyl)phenyl]sulfonylamino]phenyl]urea]
- IC50 [1]: 143 µM

SMILES: O=C(Nc1ccc(NS(=O)(=O)c2ccc(F)cc2)cc1)Nc1ccc([N+](=O)[O-])cc1 [1-[4-[(4-fluorophenyl)sulfonylamino]phenyl]-3-(4-nitrophenyl)urea]
- IC50 [2]: 370 µM

SMILES: Nc1ccc(S(=O)(=O)Nc2ccc(NC(=O)Nc3ccccc3[N+](=O)[O-])cc2)cc1 [1-[4-[(4-aminophenyl)sulfonylamino]phenyl]-3-(2-nitrophenyl)urea]
- IC50 [1]: 17.1 µM
- IC50 [2]: > 150 µM

SMILES: O=C(Nc1ccc(NS(=O)(=O)c2ccc(Cl)c(Cl)c2)cc1)Nc1cccc([N+](=O)[O-])c1 [1-[4-[(3,4-dichlorophenyl)sulfonylamino]phenyl]-3-(3-nitrophenyl)urea]
- IC50 [1]: 95.5 µM
- IC50 [2]: 382 µM

SMILES: O=C(Nc1ccc(NS(=O)(=O)c2ccc(Cl)c(Cl)c2)cc1)Nc1ccccc1[N+](=O)[O-] [1-[4-[(3,4-dichlorophenyl)sulfonylamino]phenyl]-3-(2-nitrophenyl)urea]
- IC50 [1]: 443 µM
- IC50 [2]: > 600 µM

SMILES: O=C(Nc1ccc([N+](=O)[O-])cc1)Nc1ccc(S(=O)(=O)Nc2ccc(Cl)c(Cl)c2)cc1
- IC50 [1]: 6.4 µM
- IC50 [2]: 2 µM

SMILES: O=C(Nc1ccc(NS(=O)(=O)c2ccc(Cl)c(Cl)c2)cc1)Nc1ccc([N+](=O)[O-])cc1 [1-[4-[(3,4-dichlorophenyl)sulfonylamino]phenyl]-3-(4-nitrophenyl)urea]
- IC50 [1]: 32.7 µM
- IC50 [2]: 7.3 µM
